Earlier results on one compound are cited in US10913844B2, “Plasticized thermoset resin, and associated cured resin, method of curing, and article comprising cured resin” (The University of Massachusetts, priority 2016, dated 2021).

For this series the following is noted: solvent furfural.

In the case of `C1N2CN3CN1CN(C2)C3` [HMTA, hexamethylenetetramine], the “solubility of HMTA in furfural” value was “less than two”.
